Columns and labels:
[1] = system: A431 cells; experiment: Spheroid formation assay, A431 cells; assay type: cell-based, human; settings: 20 μM, 48 h on day 8 spheroids
Description: In (A), it is shown that A431-derived ECS cells have elevated TG2 and mesenchymal markers. A431 cells (40,000 cells/well) were grown in spheroid media in monolayer conditions or as non-attached spheroids (ECS cells) for 10 d. Cells were harvested and lysates prepared for immunoblot. In (B), A431 cells were electroporated with 3 μg of control- or TG2-siRNA and at 72 h extracts were prepared to assay TG2 and EMT marker level. In (C), A431-derived ECS cells were electroporated with 3 μg of the indicated siRNA and then grown as spheroids for 96 h. […] In (D), A431 cells (500,000 cells/well) were plated in monolayer culture in spheroid media in 100 mm dishes. The following day, at time zero, 0 or 20 μM NC9 was added with fresh addition of medium and NC9 at 24 h. At 48 h the cells were harvested and extracts prepared for immunoblot. In (E), A431 cells were pretreated in 0 or 20 μM NC9 for 2 h and then harvested and 25,000 cells were seeded in the upper chamber above a matrigel-coated membrane in 1 mL of growth medium containing 1% FCS in a Millicell chamber. […] Confluent monolayers were then scratched with a 10-μL pipette tip, rinsed, and width of the wound was monitored for 0-14 h.
Spheroid formation assay. […] Spheroid size and number was monitored with time in culture as previously described (Adhikary, G. et al., PLoS One 8:e84324, 2013).

[2] = system: procaspase 3; experiment: Immunoblot of procaspase 3 cleavage, SCC-13 spheroids; assay type: cell-based, human; settings: 8 day spheroids, 20 μM
Description: In (A), SCC-13 cells (40,000) were plated in non-adherent six well dishes, grown for 8 days in spheroid medium, and then NC9 was added and spheroid number was monitored at 0-48 hours. In (B), spheroids were grown for 10 days, treated for 48 hours with indicated level of NC9 and photographed. In (C), SCC-13 cells were plated at 40,000 cells per well in non-adherent six well dishes and after 10 days the spheroids were treated with 0-20 μM NC9 for 0-72 hours before trypan blue exclusion viability assay. In (D), SCC-13 spheroids were grown for 10 days, treated with 0 or 20 μM NC9 for 48 hours, and TG2 level was assayed by immunoblot. In (E), SCC-13 cells were grown as monolayers in spheroid medium and TG2 activity was monitored by FC incorporation assay as outlined in the Materials and Methods for Example 7. In (F), SCC-13 cell 8 day spheroids were treated with […] NC9 and cells were harvested at the indicated times for immunoblot detection of procaspase 3 and cleaved caspase 3. In all panels, the values are mean±SEM, n=3, p<0.05.

[3] = system: ECS cells (derived from SCC-13) tumors; experiment: Tumor xenograft growth assay, SCC-13-derived ECS cells in NSG mice; assay type: in vivo
Description: In (A), SCC13-Control-shRNA and SCC13-TG2-shRNA2 cells were double electroporated with empty vector (EV) or YAP(S127A)-encoding vector and at 48 h post-electroporation lysates were collected for immunoblot. In (B), (C), and (D), the indicated cell lines were electroporated with EV or YAP(S127A)-encoding vector and then plated for spheroid formation, invasion and migration assay. In (E) and (F), ECS cells (100,000 cells derived from SCC-13) were injected into each front flank in NSG mice. At 1 d post injection, the mice were treated with 0 or 20 mg NC9 per kg body weight delivered in 200 μl by gavage three times per week. Images represent appearance and size of typical control and NC9 treated tumors harvested on week four. In (G), tumors were harvested at 4 wk and extracts were prepared for assay of indicated proteins. Blots from two representative tumors are shown. In (H), a proposed TG2 signaling scheme is shown. TG2 interacts with α6/β4 integrin to enhance integrin (FAK/Src) signaling which increases PI3K/PDK1 activity and PDK suppresses activity in the Hippo signaling cascade (LATS1). This leads to reduced LATS1 phosphorylation of YAP1 which then interacts with and stabilizes ΔNp63α. […]
Tumor xenograft growth assay. […] Tumor growth was monitored by measuring tumor diameter and calculating tumor volume=4/3π×(diameter/2)^3 (Streit, M. et al., Am. J. Pathol. 155:441-52, 1999). […]

Q: C=CC(=O)NCCCC[C@H](NC(=O)OCc1ccccc1)C(=O)NCCOCCOCCNS(=O)(=O)c1cccc2c(N(C)C)cccc12 [NC9] was tested. Which spheroid formation [1] did it give?
A: reduced spheroid formation

Q: And the “time to initiation of procaspase 3 cleavage after addition” value [2]?
A: ≤ 1 h

Q: What about the tumor formation ([3]; 20 mg/kg body weight, three times per week, 4 wk) of the same molecule?
A: markedly suppressed tumor formation

Q: And the “integrin and Hippo signaling in tumor extracts” value ([3]; 20 mg/kg, tumors harvested at 4 wk)?
A: reduced integrin-04 level, and FAK and Src activity, and increased LATS1-P and YAP-P
